For 31 compounds, IC50 results are on record in patent publication US20240390340A1 (INCYTE CORPORATION, priority 2023, published 2024).

pIC50: −log10 of the molar value. Some results are limits rather than exact numbers.

One assay addresses KRAS G12V (Homo sapiens, UniProt P01116, G12V). The experiment in a line: GDP-GTP exchange assay (bodipy-GDP/GppNHp, SOS1), KRAS G12V. The assay is classed as biochemical. The note with it: KRAS G12V mutant; value for the most potent isomer quoted for certain compounds; read-out: G12V (KRAS G12V exchange assay IC50). The protocol: (§1) The inhibitor potency of the exemplified compounds was determined in a fluorescence based guanine nucleotide exchange assay, which measures the exchange of bodipy-GDP (fluorescently labeled GOP) for GppNHp (Non-hydrolyzable GTP analog) to generate the active state of KRAS in the presence of SOS1 (guanine nucleotide exchange factor). Inhibitors were serially diluted in DMSO and a volume of 0.1 μL was transferred to the wells of a black low volume 384-well plate. 5 μL/well volume of bodipy-loaded KRAS G12D diluted to 2.5 nM in assay buffer (25 mM Hepes pH 7.5, 50 mM NaCl, 10 mM MgCl2 and 0.01% Brij-35) was added to the plate and pre-incubated with inhibitor for 4 h at r.t. Appropriate controls (enzyme with no inhibitor or with a G12D inhibitor) were included on the plate. The exchange was initiated by the addition of a 5 μL/well volume containing 1 mM GppNHp and 300 nM SOS1 in assay buffer. The 10 μL/well reaction concentration of the bodipy-loaded KRAS G12D, GppNHp, and SOS1 were 2.5 nM, 500 μM, and 150 nM, respectively. The reaction plates were incubated at r.t. for 2 h, a time estimated for complete GDP-GTP exchange in the absence of inhibitor. For the KRAS G12V mutant, similar guanine nucleotide exchange assays were used with 2.5 nM as final concentration for the bodipy loaded KRAS proteins and 3 h incubation after adding GppNHp-SOS1 mixture. A cyclic peptide described to selectively bind G12D mutant (Sakamoto et al., BBRC 484.3 (2017), 605-611) or internal compounds with confirmed binding were used as positive controls in the assay plates. Fluorescence intensities were measured on a PheraStar plate reader instrument (BMG Labtech) with excitation at 485 nm and emission at 520 nm.
(§2) Either GraphPad prism or Genedata Screener SmartFit was used to analyze the data. The IC50 values were derived by fitting the data to a four parameter logistic equation producing a sigmoidal dose-response curve with a variable Hill coefficient.
(§3) The symbol “†” indicates IC50≤100 nM, “††” indicates IC50>100 nM but ≤1 μM; and “†††” indicates IC50 is >1 μM but ≤5 μM, “††††” indicates IC50 is >5 μM but ≤10 μM. “NA” indicates IC50 not available.

In a further assay the target is KRAS G12D (Homo sapiens, UniProt P01116, G12D). Briefly: GDP-GTP exchange assay (bodipy-GDP/GppNHp, SOS1), KRAS G12D. The assay is classed as biochemical. The note with it: bodipy-loaded KRAS G12D 2.5 nM, 4 h pre-incubation; value for the most potent isomer quoted for certain compounds; read-out: G12D (KRAS G12D exchange assay IC50). As to the method: as §1, §2, §3
Sequence of KRAS G12D (P01116 1-188 isoform P01116-2 G12D): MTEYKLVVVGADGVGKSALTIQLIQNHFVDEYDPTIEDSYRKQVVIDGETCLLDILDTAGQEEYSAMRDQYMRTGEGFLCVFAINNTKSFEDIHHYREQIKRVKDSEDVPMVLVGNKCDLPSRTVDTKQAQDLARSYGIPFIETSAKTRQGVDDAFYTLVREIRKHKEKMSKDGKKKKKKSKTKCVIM

The pIC50 is the IC50 on a negative log10 scale, so that one unit is a factor of ten.

Sequence of KRAS G12V (P01116 1-188 isoform P01116-2 G12V): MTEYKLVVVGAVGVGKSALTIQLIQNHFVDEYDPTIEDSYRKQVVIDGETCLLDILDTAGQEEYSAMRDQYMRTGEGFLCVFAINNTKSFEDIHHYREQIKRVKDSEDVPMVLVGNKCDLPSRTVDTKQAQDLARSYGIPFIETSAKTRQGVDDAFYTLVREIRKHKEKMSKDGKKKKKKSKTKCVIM

Consider `CN1CCC(c2nc3c(F)c(-c4cccc(Cl)c4Cl)c(CCC#N)cc3c3c2cc([C@H]2C[C@H](OCc4c(F)cccc4F)CN2C(=O)C2CC2)n3[C@H]2[C@H]3CN[C@@H]2C3)CC1` [Example 236], for which the pIC50 at KRAS G12V and on KRAS G12D was ≥ 7.00 in each case. For `Cc1nc2c(F)c(-c3cccc(Cl)c3Cl)c(CCC#N)cc2c2c1cc([C@H]1C[C@H](OC3CCc4ccccc43)CN1C(=O)C1CC1)n2[C@H]1[C@H]2CN[C@@H]1C2` (stereo partly shown) [Example 337], the pIC50 is 6.00 to 7.00 on KRAS G12V and ≥ 7.00 at KRAS G12D. Turning to `Cc1nc2c(F)c(-c3cccc(Cl)c3Cl)c(CCC#N)cc2c2c1cc([C@H]1C[C@H](n3cc([C@H](C)O)nn3)CN1C(=O)C1CC1)n2[C@H]1C2CNC1C2` (stereo partly shown) [Example 184], the pIC50 at KRAS G12V and at KRAS G12D was ≥ 7.00 throughout. In the case of `Cc1nc2c(F)c(-c3cccc(Cl)c3Cl)c(CCC#N)cc2c2c1cc([C@H]1C[C@H](n3cc(C(F)F)nn3)CN1C(=O)C1CC1)n2[C@H]1[C@H]2CN[C@@H]1C2` [Example 380], the pIC50 at KRAS G12V and on KRAS G12D was ≥ 7.00 each time. In the case of `Cc1nc2c(F)c(-c3cccc(Cl)c3Cl)c(CCC#N)cc2c2c1cc([C@H]1C[C@H](N3C(=O)COC3=O)CN1C(=O)C1CC1)n2[C@H]1[C@H]2CN[C@@H]1C2` [Example 320], the pIC50 on KRAS G12V and at KRAS G12D was ≥ 7.00 in each case. On to `Cc1nc2c(F)c(-c3cccc(Cl)c3Cl)c(CCC#N)cc2c2c1cc([C@H]1C[C@H](OC(=O)c3ccccc3)CN1C(=O)C1CC1)n2[C@H]1[C@H]2CN[C@@H]1C2` [Example 87], for which the pIC50 at KRAS G12V and on KRAS G12D was ≥ 7.00 throughout. With `Cc1nc2c(F)c(-c3cccc(Cl)c3Cl)c(CCC#N)cc2c2c1cc([C@H]1C[C@H](OC(C)c3ncco3)CN1C(=O)C1CC1)n2[C@H]1[C@H]2CN[C@@H]1C2` (stereo partly shown) [Example 228], the pIC50 on KRAS G12V and at KRAS G12D was ≥ 7.00 throughout.

With `Cc1nc2c(F)c(-c3cccc(Cl)c3Cl)c(CCC#N)cc2c2c1cc([C@H]1C[C@H](OCc3ccn(C)n3)CN1C(=O)C1CC1)n2[C@H]1[C@H]2CN[C@@H]1C2` [Example 101], the pIC50 on KRAS G12V and on KRAS G12D was ≥ 7.00 throughout.

Take `COc1ncc(Br)cc1O[C@H]1C[C@H](c2cc3c(C)nc4c(F)c(-c5cccc(Cl)c5Cl)c(CCC#N)cc4c3n2[C@H]2[C@H]3CN[C@@H]2C3)N(C(=O)C2CC2)C1` [Example 450]: the pIC50 on KRAS G12V and on KRAS G12D was ≥ 7.00 throughout. Consider `[2H]C([2H])(O[C@H]1C[C@H](c2cc3c(C)nc4c(F)c(-c5cccc(Cl)c5Cl)c(CCC#N)cc4c3n2[C@H]2[C@H]3CN[C@@H]2C3)N(C(=O)C2CC2)C1)c1cc(C)sn1` [Example 229], for which the pIC50 on KRAS G12V and on KRAS G12D was ≥ 7.00 each time. For `Cc1nc2c(F)c(-c3cccc(Cl)c3Cl)c(CCC#N)cc2c2c1cc([C@H]1C[C@H](Oc3cccc(C(=O)N4CCCC4)c3)CN1C(=O)C1CC1)n2[C@H]1[C@H]2CN[C@@H]1C2` [Example 223], the pIC50 at KRAS G12V and on KRAS G12D was ≥ 7.00 each time. With `Cc1nc2c(F)c(-c3cccc(Cl)c3Cl)c(CCC#N)cc2c2c1cc([C@H]1C[C@H](Oc3ncco3)CN1C(=O)C1CC1)n2[C@H]1[C@H]2CN[C@@H]1C2` [Example 188], the pIC50 on KRAS G12V and at KRAS G12D was 5.00 to 5.30 in each case. Regarding `Cc1nc2c(F)c(-c3cccc(Cl)c3Cl)c(CCC#N)cc2c2c1cc([C@H]1C[C@H](OCc3nsc4ccccc34)CN1C(=O)C1CC1)n2[C@H]1[C@H]2CN[C@@H]1C2` [Example 255], the negative logarithm of the IC50 (pIC50) at KRAS G12V and on KRAS G12D was ≥ 7.00 throughout. Take `Cc1nc2c(F)c(-c3cccc(Cl)c3Cl)c(CCC#N)cc2c2c1cc([C@H]1C[C@H](OCc3nsc4cc(F)ccc34)CN1C(=O)C1CC1)n2[C@H]1[C@H]2CN[C@@H]1C2` [Example 256]: the negative-log IC50 (pIC50) on KRAS G12V and at KRAS G12D was ≥ 7.00 each time.

As to `Cc1nc2c(F)c(-c3cccc(Cl)c3Cl)c(CCC#N)cc2c2c1cc([C@H]1C[C@H](OC3CCCC3)CN1C(=O)C1CC1)n2[C@H]1[C@H]2CN[C@@H]1C2` [Example 238], the pIC50 at KRAS G12V and at KRAS G12D was ≥ 7.00 each time. For `COC(=O)N1C[C@@H](Oc2ccccn2)C[C@@H]1c1cc2c(C)nc3c(F)c(-c4cccc(Cl)c4Cl)c(CCC#N)cc3c2n1[C@H]1[C@H]2CN[C@@H]1C2` [Example 162], the pIC50 at KRAS G12V and at KRAS G12D was ≥ 7.00 in each case.

As to `[2H]C([2H])(O[C@H]1C[C@H](c2cc3c(C)nc4c(F)c(-c5cccc(Cl)c5Cl)c(CCC#N)cc4c3n2[C@H]2[C@H]3CN[C@@H]2C3)N(C(=O)C2CC2)[C@@H]1C)c1nscc1C` [Example 242], the pIC50 at KRAS G12V and at KRAS G12D was ≥ 7.00 in each case. On to `Cc1nc2c(F)c(-c3cccc(Cl)c3Cl)c(CCC#N)cc2c2c1cc([C@H]1C[C@H](Oc3cccnc3N3CCOCC3)CN1C(=O)C1CC1)n2[C@H]1[C@H]2CN[C@@H]1C2` [Example 284], for which the pIC50 at KRAS G12V and on KRAS G12D was ≥ 7.00 each time. As for `Cc1nc2c(F)c(-c3cccc(Cl)c3Cl)c(CCC#N)cc2c2c1cc([C@H]1C[C@H](OC[C@H]3CCOC3)CN1C(=O)C1CC1)n2[C@H]1[C@H]2CN[C@@H]1C2` [Example 372], the pIC50 on KRAS G12V and at KRAS G12D was ≥ 7.00 in each case.

With `Cc1nc2c(F)c(-c3cccc(Cl)c3Cl)c(CCC#N)cc2c2c1cc([C@H]1C[C@H](c3ccccc3)CN1C(=O)C1CC1)n2[C@H]1[C@H]2CN[C@@H]1C2` [Example 109], the pIC50 at KRAS G12V and on KRAS G12D was ≥ 7.00 throughout. For the compound `Cc1nc2c(F)c(-c3cccc(Cl)c3Cl)c(CCC#N)cc2c2c1cc([C@H]1C[C@H](OC(C)c3ccccn3)CN1C(=O)C1CC1)n2[C@H]1[C@H]2CN[C@@H]1C2` (stereo partly shown) [Example 226], the pIC50 on KRAS G12V and on KRAS G12D was ≥ 7.00 throughout.

Regarding `Cc1nc2c(F)c(-c3cccc(Cl)c3Cl)c(CCC#N)cc2c2c1cc([C@H]1C[C@H](OCc3ccc(C(F)(F)F)nc3)CN1C(=O)C1CC1)n2[C@H]1[C@H]2CN[C@@H]1C2` [Example 260], the pIC50 at KRAS G12V and on KRAS G12D was ≥ 7.00 in each case. For `COc1ncc(Cl)cc1O[C@H]1C[C@H](c2cc3c(C)nc4c(F)c(-c5cccc(Cl)c5Cl)c(CCC#N)cc4c3n2[C@H]2[C@H]3CN[C@@H]2C3)N(C(=O)C2CC2)C1` [Example 448], the negative-log IC50 (pIC50) on KRAS G12V and on KRAS G12D was ≥ 7.00 each time. Turning to `Cc1nc2c(F)c(-c3cccc(Cl)c3Cl)c(CCC#N)cc2c2c1cc([C@H]1C[C@H](Oc3cn(C)nc3C(F)F)CN1C(=O)C1CC1)n2[C@H]1[C@H]2CN[C@@H]1C2` [Example 299], the pIC50 at KRAS G12V and at KRAS G12D was ≥ 7.00 throughout. For `CCc1cnn([C@H]2C[C@H](c3cc4c(C)nc5c(F)c(-c6cccc(Cl)c6Cl)c(CCC#N)cc5c4n3[C@H]3[C@H]4CN[C@@H]3C4)N(C(=O)C3CC3)C2)c1` [Example 280], the pIC50 on KRAS G12V and at KRAS G12D was ≥ 7.00 throughout. For `Cc1nc2c(F)c(-c3cccc(Cl)c3Cl)c(CCC#N)cc2c2c1cc([C@H]1C[C@H](n3cnnn3)CN1C(=O)C1CC1)n2[C@H]1[C@H]2CN[C@@H]1C2` [Example 395], the pIC50 on KRAS G12V and at KRAS G12D was ≥ 7.00 each time. With `Cc1nc2c(F)c(-c3cccc(Cl)c3Cl)c(CCC#N)cc2c2c1cc([C@H]1C[C@H](n3c(=O)n(C)c4ccccc43)CN1C(=O)C1CC1)n2[C@H]1[C@H]2CN[C@@H]1C2` [Example 321], the pIC50 at KRAS G12V was 6.00 to 7.00; at KRAS G12D, ≥ 7.00. Regarding `COc1ncc(C(F)(F)F)cc1O[C@H]1C[C@H](c2cc3c(C)nc4c(F)c(-c5cccc(Cl)c5Cl)c(CCC#N)cc4c3n2[C@H]2[C@H]3CN[C@@H]2C3)N(C(=O)C2CC2)C1` [Example 451], the negative-log IC50 (pIC50) at KRAS G12V and at KRAS G12D was ≥ 7.00 in each case. `Cc1nc2c(F)c(-c3cccc(Cl)c3Cl)c(CCC#N)cc2c2c1cc([C@H]1C[C@H](Oc3ccccc3C#N)CN1C(=O)C1CC1)n2[C@H]1[C@H]2CN[C@@H]1C2` [Example 249]: the pIC50 at KRAS G12V and at KRAS G12D was ≥ 7.00 each time. `Cc1nc2c(F)c(-c3cccc(Cl)c3Cl)c(CCC#N)cc2c2c1cc([C@H]1C[C@H](Oc3ccc(=O)n(C)c3)CN1C(=O)C1CC1)n2[C@H]1[C@H]2CN[C@@H]1C2` [Example 420]: the negative-log IC50 (pIC50) at KRAS G12V and on KRAS G12D was ≥ 7.00 each time. For the compound `Cc1nc2c(F)c(-c3cccc(Cl)c3Cl)c(CCC#N)cc2c2c1cc([C@H]1C[C@H](OC(=O)c3ccccc3)CN1C(=O)C1CC1)n2[C@H]1[C@H]2CN[C@@H]1C2` [Example 270], the pIC50 at KRAS G12D was ≥ 7.00.
